Assay results: patent US20250262201A1, “COMPOUNDS AND METHODS USEFUL FOR STABILIZING PHENYLALANINE HYDROXYLASE MUTATIONS” (Agios Pharmaceuticals, Inc., priority 2022, published 2025)
Where two headings read alike, the source gives them in different places.

Target: T1, human PAH with the R408W mutation (Homo sapiens, UniProt P00439, R408W)
T1 construct: expressed in transfected cells
T1 sequence (P00439 1-452 R408W): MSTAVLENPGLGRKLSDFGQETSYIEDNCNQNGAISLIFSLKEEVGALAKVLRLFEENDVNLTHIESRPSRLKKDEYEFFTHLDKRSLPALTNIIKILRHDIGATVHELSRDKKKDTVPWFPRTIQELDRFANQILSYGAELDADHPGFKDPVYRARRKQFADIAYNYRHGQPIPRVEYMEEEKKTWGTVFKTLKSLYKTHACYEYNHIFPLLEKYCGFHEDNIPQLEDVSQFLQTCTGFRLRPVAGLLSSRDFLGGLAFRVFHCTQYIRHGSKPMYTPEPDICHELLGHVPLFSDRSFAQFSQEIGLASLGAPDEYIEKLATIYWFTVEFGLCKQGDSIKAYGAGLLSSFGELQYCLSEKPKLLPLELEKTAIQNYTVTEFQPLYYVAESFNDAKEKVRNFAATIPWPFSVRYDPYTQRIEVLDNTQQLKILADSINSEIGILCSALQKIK
Experiment: Cell Based Phenylalanine Flux Assay
Settings: 13C-Tyrosine by LC-MS, average where tested multiple times, read-out: AC50

[1] = A375 R408W cells, 24 hrs with compound, then 20 μM sepiapterin and 800 μM 13C9,15N-Phenylalanine for 4 hours
[2] = A375 cells expressing human R408W PAH, 24 hrs compound incubation

SMILES | AC50 [1] [nM] | AC50 [2] [nM]
O=C(C1CN(c2ccccn2)C1)N1CCc2[nH]cnc2C1c1cc2ccccc2cn1 (single isomer, unassigned) | 1000 to 5000 | –
COCc1ncc(C(=O)N2CCc3[nH]cnc3[C@@H]2c2ccc3ccccc3n2)o1 (single isomer, unassigned) | 1000 to 5000 | –
COCc1ncc(C(=O)N2CCc3[nH]cnc3[C@@H]2c2ccc3ccccc3n2)s1 (single isomer, unassigned) | 1000 to 5000 | –
CC(C)(O)c1ncc(C(=O)N2CCc3[nH]cnc3[C@H]2c2cn3ccccc3n2)o1 (single isomer, unassigned) | > 5000 | –
O=C(c1cnc(-c2ccccn2)o1)N1CCc2[nH]cnc2[C@@H]1c1cc2ccccc2nn1 (single isomer, unassigned) | > 5000 | –
COCc1ncc(C(=O)N2CCc3[nH]cnc3[C@H]2c2cn3ccccc3n2)s1 (single isomer, unassigned) | > 5000 | –
O=C(Cc1coc(C(F)F)n1)N1CCc2nc[nH]c2[C@H]1c1cn2ccccc2n1 (single isomer, unassigned) | > 5000 | –
O=C(c1oc(-c2ccccn2)nc1C1CC1)N1CCc2nc[nH]c2[C@H]1c1cn2ccccc2n1 (single isomer, unassigned) | > 5000 | –
Cc1nc(N(C)C)oc1C(=O)N1CCc2[nH]cnc2[C@H]1c1ccc2ccccc2n1 (single isomer, unassigned) | > 5000 | –
C[C@@H](O)c1nnc(C(=O)N2CCc3[nH]cnc3[C@H]2c2cc3ccccc3nn2)o1 (single isomer, unassigned) | > 5000 | –
C[C@H](O)c1nnc(C(=O)N2CCc3[nH]cnc3[C@H]2c2cc3ccccc3nn2)o1 (single isomer, unassigned) | 1000 to 5000 | –
Cc1ncoc1C(=O)N1CC2(CC2)c2[nH]cnc2[C@H]1c1ccc2ccccc2n1 (single isomer, unassigned) | > 5000 | –
COCCNc1nnc(C(=O)N2C[C@@H](C)c3[nH]cnc3[C@H]2c2cc3ccccc3cn2)o1 (single isomer, unassigned) | > 5000 | –
C[C@H]1CN(C(=O)c2nnc(N3CC(F)C3)o2)[C@H](c2cc3ccccc3cn2)c2nc[nH]c21 (single isomer, unassigned) | 1000 to 5000 | –
C[C@H]1CN(c2nnc(-c3ccccn3)o2)[C@@H](c2cc3ccccc3cn2)c2nc[nH]c21 (single isomer, unassigned) | > 5000 | –
CC1CN(C(=O)c2nnc(NC3CC3)o2)C(c2cc3ccccc3cn2)c2nc[nH]c21 (single isomer, unassigned) | > 5000 | –
Cc1nc(C(C)(C)O)oc1C(=O)N1CCc2[nH]cnc2[C@@H]1c1ccc2ccccc2n1 (single isomer, unassigned) [Example 14] | – | > 5000
O=C(c1nnc(-c2cnn(CC(F)(F)F)c2)o1)N1CCc2[nH]cnc2[C@H]1c1ccc2ccccc2n1 (single isomer, unassigned) [Example 67] | – | 500 to 1000
O=C(c1nnc(-c2cnn(CC(F)(F)F)c2)o1)N1CCc2[nH]cnc2[C@@H]1c1ccc2ccccc2n1 (single isomer, unassigned) [Example 68] | – | > 5000
CC(O)c1nc(Br)c(C(=O)N2CCc3[nH]cnc3[C@@H]2c2ccc3ccccc3n2)o1 (single isomer, unassigned) [Example 131] | – | 1000 to 5000
CC(O)c1nc(Br)c(C(=O)N2CCc3[nH]cnc3[C@@H]2c2ccc3ccccc3n2)o1 (single isomer, unassigned) [Example 132] | – | 1000 to 5000
CC(O)c1nc(Br)c(C(=O)N2CCc3[nH]cnc3[C@H]2c2ccc3ccccc3n2)o1 (single isomer, unassigned) [Example 133] | – | < 500
CC(O)c1nc(Br)c(C(=O)N2CCc3[nH]cnc3[C@H]2c2ccc3ccccc3n2)o1 (single isomer, unassigned) [Example 134] | – | < 500

SMILES | AC50 [1] [nM] | AC50 [2] [nM]
CC(O)c1nc(Cl)c(C(=O)N2CCc3[nH]cnc3[C@@H]2c2ccc3ccccc3n2)o1 (single isomer, unassigned) [Example 135] | – | > 5000
CC(O)c1nc(Cl)c(C(=O)N2CCc3[nH]cnc3[C@@H]2c2ccc3ccccc3n2)o1 (single isomer, unassigned) [Example 136] | – | 1000 to 5000
CC(O)c1nc(Cl)c(C(=O)N2CCc3[nH]cnc3[C@H]2c2ccc3ccccc3n2)o1 (single isomer, unassigned) [Example 137] | – | < 500
CC(O)c1nc(Cl)c(C(=O)N2CCc3[nH]cnc3[C@H]2c2ccc3ccccc3n2)o1 (single isomer, unassigned) [Example 138] | – | < 500
CC(F)(F)c1ncc(C(=O)N2CCc3[nH]cnc3[C@@H]2c2cn3ccccc3n2)s1 (single isomer, unassigned) [Example 235] | – | > 5000
CC(F)(F)c1ncc(C(=O)N2CCc3[nH]cnc3[C@H]2c2cn3ccccc3n2)s1 (single isomer, unassigned) [Example 236] | – | 1000 to 5000
O=C(c1oc(-c2ccccn2)nc1C1CC1)N1CCCc2[nH]cnc2[C@H]1c1cc2ccccc2cn1 (single isomer, unassigned) [Example 379] | – | 1000 to 5000
O=C(c1oc(-c2ccccn2)nc1C1CC1)N1CCCc2[nH]cnc2[C@@H]1c1cc2ccccc2cn1 (single isomer, unassigned) [Example 380] | – | > 5000
C[C@H]1CN(C(=O)c2nnc(-c3ccccn3)o2)[C@H](c2cc3ccccc3cn2)c2nc[nH]c21 (single isomer, unassigned) [Example 385] | – | 500 to 1000
C[C@H]1CN(C(=O)c2nnc(-c3ccccn3)o2)[C@@H](c2cc3ccccc3cn2)c2nc[nH]c21 (single isomer, unassigned) [Example 386] | – | > 5000
C[C@@H]1CN(C(=O)c2nnc(-c3ccccn3)o2)[C@H](c2cc3ccccc3cn2)c2nc[nH]c21 (single isomer, unassigned) [Example 388] | – | 500 to 1000
O=C(c1cnc(-c2ccccn2)s1)N1CCc2[nH]cnc2C1c1ccc2ccccc2n1 (stereo in doubt) [Example 1, (R)-(2-(pyridin-2-yl)thiazol-5-yl)(4-(quinolin-2-yl)-6,7-dihydro-1H-imidazo[4,5-c]pyridin-5(4H)-yl)methanone] | – | < 500
O=C(c1cnc(-c2ccccn2)s1)N1CCc2[nH]cnc2C1c1ccc2ccccc2n1 (stereo in doubt) [Example 2, (S)-(2-(pyridin-2-yl)thiazol-5-yl)(4-(quinolin-2-yl)-6,7-dihydro-1H-imidazo[4,5-c]pyridin-5(4H)-yl)methanone] | – | 1000 to 5000
CC(C)(C)c1ncc(C(=O)N2CCc3[nH]cnc3C2c2ccc3ccccc3n2)s1 (stereo in doubt) [Example 3, (R)-(2-(tert-butyl)thiazol-5-yl)(4-(quinolin-2-yl)-6,7-dihydro-1H-imidazo[4,5-c]pyridin-5(4H)-yl)methanone] | – | < 500
CC(C)(C)c1ncc(C(=O)N2CCc3[nH]cnc3C2c2ccc3ccccc3n2)s1 (stereo in doubt) [Example 4, (S)-(2-(tert-butyl)thiazol-5-yl)(4-(quinolin-2-yl)-6,7-dihydro-1H-imidazo[4,5-c]pyridin-5(4H)-yl)methanone] | – | > 5000
O=C(c1cncs1)N1CCc2[nH]cnc2C1c1ccc2ccccc2n1 (stereo in doubt) [Example 5, (R)-(4-(quinolin-2-yl)-6,7-dihydro-1H-imidazo[4,5-c]pyridin-5(4H)-yl)(thiazol-5-yl)methanone] | – | 500 to 1000
O=C(c1cncs1)N1CCc2[nH]cnc2C1c1ccc2ccccc2n1 (stereo in doubt) [Example 6, (S)-(4-(quinolin-2-yl)-6,7-dihydro-1H-imidazo[4,5-c]pyridin-5(4H)-yl)(thiazol-5-yl)methanone] | – | > 5000
Cc1nc(C(C)(C)C)oc1C(=O)N1CCc2[nH]cnc2C1c1ccc2ccccc2n1 (stereo in doubt) [Example 7, (R)-(2-(tert-butyl)-4-methyloxazol-5-yl)(4-(quinolin-2-yl)-6,7-dihydro-1H-imidazo[4,5-c]pyridin-5(4H)-yl)methanone] | – | 500 to 1000
O=C(c1nnc(C2CC2)o1)N1CCc2[nH]cnc2C1c1ccc2ccccc2n1 (stereo in doubt) [Example 9, (R)-(5-cyclopropyl-1,3,4-oxadiazol-2-yl)(4-(quinolin-2-yl)-6,7-dihydro-1H-imidazo[4,5-c]pyridin-5(4H)-yl)methanone] | – | 500 to 1000
O=C(c1nnc(C2CC2)o1)N1CCc2[nH]cnc2C1c1ccc2ccccc2n1 (stereo in doubt) [Example 10, (S)-(5-cyclopropyl-1,3,4-oxadiazol-2-yl)(4-(quinolin-2-yl)-6,7-dihydro-1H-imidazo[4,5-c]pyridin-5(4H)-yl)methanone] | – | 1000 to 5000
O=C(c1nnc(-c2ccc(F)cc2)o1)N1CCc2[nH]cnc2C1c1ccc2ccccc2n1 (stereo in doubt) [Example 11, (R)-(5-(4-fluorophenyl)-1,3,4-oxadiazol-2-yl)(4-(quinolin-2-yl)-6,7-dihydro-1H-imidazo[4,5-c]pyridin-5(4H)-yl)methanone] | – | < 500
CC(C)(F)c1ncc(C(=O)N2CCc3[nH]cnc3C2c2ccc3ccccc3n2)s1 (stereo in doubt) [Example 15, (R)-(2-(2-fluoropropan-2-yl)thiazol-5-yl)(4-(quinolin-2-yl)-6,7-dihydro-1H-imidazo[4,5-c]pyridin-5(4H)-yl)methanone] | – | 500 to 1000
